Earlier results as cited in US8409637B2, “Compositions and methods for treating and preventing migrainous headaches and associated symptoms” (Puramed Bioscience Inc., priority 2007, dated 2013).

Key:
COX-2 = molecular target: T1, COX-2 (Homo sapiens, UniProt P35354)
T1 sequence (P35354 18-604): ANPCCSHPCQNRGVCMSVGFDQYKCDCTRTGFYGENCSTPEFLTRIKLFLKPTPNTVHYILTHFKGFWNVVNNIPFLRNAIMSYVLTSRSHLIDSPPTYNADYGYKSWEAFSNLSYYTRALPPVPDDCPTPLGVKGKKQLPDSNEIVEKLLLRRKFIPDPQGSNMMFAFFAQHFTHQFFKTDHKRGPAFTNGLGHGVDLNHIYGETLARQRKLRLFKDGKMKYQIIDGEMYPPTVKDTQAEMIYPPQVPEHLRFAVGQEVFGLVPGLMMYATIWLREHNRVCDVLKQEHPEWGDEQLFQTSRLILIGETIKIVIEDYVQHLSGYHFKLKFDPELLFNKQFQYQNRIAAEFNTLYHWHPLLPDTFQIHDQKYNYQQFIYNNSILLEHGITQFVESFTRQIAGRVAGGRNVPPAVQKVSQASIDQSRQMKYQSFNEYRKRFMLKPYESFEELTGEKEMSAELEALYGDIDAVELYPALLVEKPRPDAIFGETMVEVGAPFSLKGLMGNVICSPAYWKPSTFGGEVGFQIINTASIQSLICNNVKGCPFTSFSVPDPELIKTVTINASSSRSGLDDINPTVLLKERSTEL

## C/C=C(/C=O)[C@@H](CC=O)CC(=O)OCCc1ccc(O)cc1 [oleocanthal]
COX-1
  Inhibition of COX-1 enzyme activity: inhibits
COX-2
  Inhibition of COX-2 enzyme activity: inhibits
